Measurements as given in paper PMC10165273, “Itch receptor MRGPRX4 interacts with the receptor activity–modifying proteins” (The Journal of Biological Chemistry, 2023).
Several values for one entry are separate records, joined by “and”; a condition that tells them apart may be missing. Equal entries are not always repeated. Where two headings read alike, the source gives them in different places.

Experiments:
Type in all cases: cell-based
MRGPRX4 + RAMP2 = molecular target: T1, MRGPRX4 + RAMP2 (Homo sapiens, UniProt Q96LA9); assay: IP1 accumulation, MRGPRX4 coexpressed with RAMP2; design: key to response to agonist, X4:ramp2.I:2: % IP1: mock-transfected unstimulated = 0%, fully stimulated MRGPRX4 = 100%; key to IP1 Basal / response to agonist, X4:ramp2.I:0.25 / response to agonist, X4:ramp2.I:0.5 / response to agonist, X4:ramp2.I:1: % IP1; unstimulated mock = 0%, fully stimulated MRGPRX4 = 100%; details: for activation at 20 µM / activation at 4 µM / activation at 0.8 µM / activation at […] / activation at 0.032 µM / activation at 100 µM: 2 h, Fig S3e, read-out: IP1 accumulation; for activation at 20 µM: log [DCA] (M) -4.69897; for activation at 4 µM: log [DCA] (M) -5.39794; for activation at 0.8 µM: log [DCA] (M) -6.09691; for activation at […]: log [DCA] (M) -6.79588; for activation at 0.032 µM: log [DCA] (M) -7.49485; for activation at 100 µM: log [DCA] (M) -4; for response to agonist, X4:ramp2.I:0.25 / response to agonist, X4:ramp2.I:0.5 / response to agonist, X4:ramp2.I:1 / response to agonist, X4:ramp2.I:2: Figure 4c-f, agonist 100µM, MRGPRX4 = 100; for response to agonist, X4:ramp2.I:0.25: X4:ramp2 1:0.25; for response to agonist, X4:ramp2.I:0.5: X4:ramp2 1:0.5; for response to agonist, X4:ramp2.I:1: X4:ramp2 1:1; for response to agonist, X4:ramp2.I:2: X4:ramp2 1:2; for IP1 Basal / IP1 span (Emax minus basal) / Emax: normalized per agonist; for Emax: read-out: IP1 Emax
T1 construct: expressed in transfected cells; host or cells: HEK293T
T1 sequence (Q96LA9 whole entry): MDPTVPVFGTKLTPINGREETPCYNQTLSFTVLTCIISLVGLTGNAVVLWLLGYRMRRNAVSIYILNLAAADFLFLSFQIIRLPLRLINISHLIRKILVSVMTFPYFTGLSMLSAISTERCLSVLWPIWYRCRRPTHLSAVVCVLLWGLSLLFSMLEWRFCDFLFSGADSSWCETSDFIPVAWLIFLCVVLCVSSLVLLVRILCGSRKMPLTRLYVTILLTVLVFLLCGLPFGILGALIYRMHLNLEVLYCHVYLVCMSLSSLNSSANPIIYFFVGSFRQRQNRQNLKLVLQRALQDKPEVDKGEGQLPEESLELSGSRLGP
Experimental: HEK293T cells were transfected with 1 pg/cell of MRGPRX4 DNA, and the amount of DNA was kept constant at 2 pg/cell with pcDNA3.1(+) empty vector, unless otherwise specified. Twenty four hours after transfection, IP1 assay was performed as previously described ([51]). When applicable, cells were treated with 1 μM YM254890 (YM) or different concentrations of U73122 for 1 h prior to addition of agonist or buffer. After incubation for 2 h, HTRF reagents and IP1 calibration standards were added and incubated for 2 h in the dark at room temperature. Time-resolved fluorescence signals were read on the BioTek Synergy NEO-TRF Hybrid multi-mode reader (BioTek Instruments). All data were carried out in three independent experiments with three technical replicate each.
For RAMP DNA titration assay, HEK293T cells were cotransfected with a constant amount of 1 pg/cell of FLAG-MRGPRX4-GFP10-1D4 to which a serial dilution of 1, 0.75, 0.5, 0.25, or 0 pg/cell of each HA-RAMP-OLLAS was added. For a homogenous transfection of MRGPRX4, a master mix of MRGPRX4 DNA was made prior to addition of the RAMP DNA. […]
Data reduction, standard calibration, and transformation of HTRF data were performed as previously described ([51]). Normalized IP1 values were calculated relative to the unstimulated mock-transfected cells (set to 0%) and fully stimulated MRGPRX4 (alone if applicable) (set to 100%).

MRGPRX4 [1] = molecular target: T2, MRGPRX4 (Homo sapiens, UniProt Q96LA9); assay: BRET2 β-arrestin1 recruitment to MRGPRX4; details: 100 μM agonist (Fig. 5A)
T2 construct: expressed in transfected cells; host or cells: HEK293T
T2 sequence (Q96LA9 whole entry): as above
Experimental: (§1) The method for homogenous transfection of β-Arrestin and BRET^2 assay of β-Arrestin recruitment has been described previously ([51]). […] BRET^2 measurements were taken on the BioTek Synergy NEO2 microplate reader.
(§2) For MRGPRX4 DNA titration assays, HEK293T cells were cotransfected with either β-Arrestin1 or β-Arrestin2 with increasing amounts of MRGPRX4 (0.5, 1, or 2 pg/cell).
(§3) The BRET ratio for each sample was determined by calculating the ratio of the light intensity emitted by the GFP10 (515 nm) (acceptor) over the light intensity emitted by the RLuc3 (395 nm) (donor). Net BRET^2 was determined by subtracting the basal BRET^2 (β-arrestin-RLuc3 only) signal from the BRET^2 signals. All BRET values were normalized to the MRGPRX4-only condition.

MRGPRX4 [2] = molecular target: T2, MRGPRX4; assay: BRET2 β-arrestin2 recruitment to MRGPRX4; details: 100 μM agonist (Fig. 5B, C)
From the text: as §1, §2
To measure the time-course of β-Arrestin2 recruitment to MRGPRX4 and CALCRL, the transfection and general procedure described above was followed, with the modification that Prolume Purple was added first, followed by addition of the appropriate agonists ([51]).
as §3

[3] = MRGPRX4 + RAMP2 0.25 pg (Fig. S3)
[4] = MRGPRX4 + RAMP2 0.5 pg (Fig. S3)

## C[C@H](CCC(=O)O)[C@H]1CC[C@H]2[C@@H]3CC[C@@H]4C[C@H](O)CC[C@]4(C)[C@H]3C[C@H](O)[C@]12C [DCA, deoxycholic acid]
MRGPRX4 + RAMP2; ratio MRGPRX4:RAMP2 1:0.25
  activation at 20 µM: 59.5%
  activation at 4 µM: 39%
  activation at 0.8 µM: 28.2%
  activation at […]: 28.2%
  activation at 0.032 µM: 29.4%
MRGPRX4 + RAMP2; ratio MRGPRX4:RAMP2 1:0.5
  activation at 20 µM: 51.9%
  activation at 4 µM: 28.9%
  activation at 0.8 µM: 21.9%
  activation at […]: 21.5%
MRGPRX4 + RAMP2; ratio MRGPRX4:RAMP2 1:1
  activation at 100 µM: 56.6%
  activation at 20 µM: 35%
  activation at 0.8 µM: 13.8%
  activation at […]: 13.1%
  activation at 0.032 µM: 13.2%
MRGPRX4 + RAMP2; ratio MRGPRX4:RAMP2 1:2
  activation at 100 µM: 20.6%
  activation at 20 µM: 10.3%
  activation at 4 µM: 5.86%
  activation at […]: 6.3%
  activation at 0.032 µM: 5.62%
MRGPRX4 + RAMP2
  response to agonist, X4:ramp2.I:0.25: 82.2333 and 78.588
  response to agonist, X4:ramp2.I:0.5: 59.4831 and 67.5869
  response to agonist, X4:ramp2.I:1: 42.5729 and 40.2351
  response to agonist, X4:ramp2.I:2: 19.2213 and 20.608
MRGPRX4 + RAMP2; [3]
  IP1 Basal: 22.40
  IP1 span (Emax minus basal): 84.8%
  Emax: 107%
MRGPRX4 + RAMP2; [4]
  IP1 Basal: 17.50
  IP1 span (Emax minus basal): 77%
  Emax: 94.5%
MRGPRX4 + RAMP2; MRGPRX4 + RAMP2 1 pg (Fig. S3)
  IP1 Basal: 11.18
  IP1 span (Emax minus basal): 45%
  Emax: 56.2%
MRGPRX4 + RAMP2; MRGPRX4 + RAMP2 2 pg (Fig. S3)
  IP1 Basal: 5.412
  IP1 span (Emax minus basal): 24.4%
  Emax: 29.9%
MRGPRX4 [1]
  β-arrestin1 recruitment to MRGPRX4: did not recruit β-arrestin1
MRGPRX4 [2]
  β-arrestin2 recruitment to MRGPRX4: did not observe any β-arrestin2 recruitment

## C[C@H](CCC(=O)NCCS(=O)(=O)O)[C@H]1CC[C@H]2[C@@H]3CC[C@@H]4C[C@H](O)CC[C@]4(C)[C@H]3C[C@H](O)[C@]12C [TDCA, Taurodeoxycholic acid]
MRGPRX4 + RAMP2
  response to agonist, X4:ramp2.I:0.25: 76.6313 and 76.3781
  response to agonist, X4:ramp2.I:0.5: 59.1022 and 61.5718
  response to agonist, X4:ramp2.I:1: 39.1806 and 35.15
  response to agonist, X4:ramp2.I:2: 12.332 and 15.0971
